Measurements from patent publication US20060094787A1, “Pharmaceutical composition comprising 5-methyl-2-2'(chloro-6'-fluoroanilino) phenylacetic acid” (priority 2003, published 2006).

Test: Solubility of drug substance in water / suspension
Assay type: physicochemical

## Cc1ccc(Nc2c(F)cccc2Cl)c(CC(=O)O)c1 [5-methyl-2-(2′-chloro-6′-fluoroanilino)phenylacetic acid]
  water solubility of drug substance: relatively water insoluble
